Test results from patent US11731964B2, “Benzamide antibacterial agents” (Purdue Research Foundation, priority 2018, dated 2023).
Converted amounts (≈) assume the structure as drawn.

Assays:
Type in all cases: cell-based
[1] = test system: S. aureus; assay: MIC (Table 5, strain not given); conditions: Staphylococcus aureus; S. aureus (Table 5)
Description: (§1) Bacteria were cultured in cation-adjusted Mueller Hinton Broth (for strains in Tables 1 and 4) or Brain Heart Infusion broth (for Enterococcus faecium) or Tryptic Soy Broth (all other bacteria) in a 96-well plate at 37° C. for at least 20 hours. The MIC was classified as the lowest concentration where no visual growth of bacteria was observed. The minimum bactericidal concentration (MBC) was tested by spotting 4 μL from wells with no growth onto Tryptic Soy Agar (TSA) plates. Plates were incubated at 37° C. for at least 18 hours before recording the MBC.

[2] = test system: MRSA ATCC 33592; assay: MIC, broth microdilution; conditions: Staphylococcus aureus; MRSA ATCC 33592; read-out: MIC
Description: as §1

[3] = test system: S. aureus; assay: Screening of compounds for growth inhibition of S. aureus at 16 μg/mL (OD600); conditions: compound at 16 μg/mL, 24 hours, compared to DMSO control
Description: Library compounds and analogs of F6 were dissolved in DMSO at 10 mg/mL. S. aureus was cultured in Mueller Hinton Broth to early exponential phase at which point culture aliquots were incubated with compounds at 16 μg/mL or DMSO in duplicates. The culture was continued at 37° C. for 24 hours. Aliquots (100 μL) of the cultures were dispensed into clear 96 well microtiter plates and OD600 was recorded. Percent normalized OD600 was obtained by using the equation [formula] wherein for a given compound, X is the OD600 of culture with the compound, Xo is that of media only and XT is the OD600 of the DMSO control.

[4] = test system: E. faecalis; assay: MIC (Table 5, strain not given); conditions: Enterococcus faecalis; E. faecalis (Table 5)
Description: as §1

[5] = test system: VRE; assay: MIC (Table 5, strain not given); conditions: Enterococcus; VRE (Table 5)
Description: as §1

[6] = test system: L. monocytogenes ATCC 19115; assay: MIC, broth microdilution; conditions: Listeria monocytogenes, ATCC19115; L. monocytogenes ATCC 19115; read-out: MIC
Description: as §1

[7] = test system: S. aureus ATCC 25923; assay: MIC, broth microdilution; conditions: Staphylococcus aureus, ATCC25923; S. aureus ATCC 25923; read-out: MIC
Description: as §1

[8] = test system: VRE (E. faecalis) ATCC 51575; assay: MIC, broth microdilution; conditions: VRE (E. faecalis) ATCC 51575; read-out: MIC
Description: as §1

[9] = test system: E. faecalis ATCC 29212; assay: MIC, broth microdilution; conditions: Enterococcus faecalis, ATCC29212; E. faecalis ATCC 29212; read-out: MIC
Description: as §1

Row | SMILES | MIC [1] | MIC [2] | inhibition of growth of S. aureus [3] | further results
1 | Cc1cc(C(=O)Nc2nnc(-c3ccc(C(F)(F)F)cc3)o2)ccc1S(=O)(=O)N1CCC(C)CC1 [HSGN-195, 3-methyl-4-((4-methylpiperidin-1-yl)sulfonyl)-N-(5-(4-(trifluoromethyl)phenyl)-1,3,4-oxadiazol-2-yl)benzamide] | 1 µg/mL (≈ 1.97 µM) | 0.5 µg/mL (≈ 0.983 µM) |  | 
2 | CC1CC(C)CN(S(=O)(=O)c2ccc(C(=O)Nc3nnc(C4CCCO4)s3)cc2)C1 (stereo not shown) [Compound F6-2, 4-((3,5-Dimethylpiperidin-1-yl)sulfonyl)-N-(5-(tetrahydrofuran-2-yl)-1,3,4-thiadiazol-2-yl)benzamide] |  |  | inactive | 
3 | O=C(Nc1nnc(-c2ccco2)o1)c1ccc(S(=O)(=O)N2CCOCC2)cc1 [Compound F9] |  |  | not active | 
4 | CN(CC1CCCO1)S(=O)(=O)c1ccc(C(=O)Nc2nnc(-c3ccccc3)o2)cc1 (stereo not shown) [Compound G9] |  |  | only slightly inhibited growth | 
5 | O=C(Nc1nnc(-c2cccs2)s1)c1ccc(S(=O)(=O)N2CCCCC2)cc1 [Compound F4] |  | 16 µg/mL (≈ 36.8 µM) | significantly inhibited the growth | MIC [6]: 16 µg/mL (≈ 36.8 µM); MIC [7]: 16 µg/mL (≈ 36.8 µM); MIC [8]: 32 µg/mL (≈ 73.6 µM); MIC [9]: 32 µg/mL (≈ 73.6 µM)
6 | COc1cccc(OC)c1C(=O)N[C@@H]1C(=O)N2[C@@H]1SC(C)(C)[C@@H]2C(=O)O [Methicillin, reference compound] |  | > 128 µg/mL |  | MIC [7]: 2 µg/mL (≈ 5.26 µM)
7 | CC1CC(C)CN(S(=O)(=O)c2ccc(C(=O)Nc3nnc(-c4cccs4)s3)cc2)C1 (stereo not shown) [Compound F6-7, 4-((3,5-Dimethylpiperidin-1-yl)sulfonyl)-N-(5-(thiophen-2-yl)-1,3,4-thiadiazol-2-yl)benzamide] |  |  | activity was lost | 
8 | CC1CC(C)CN(S(=O)(=O)c2ccc(C(=O)Nc3nnc(-c4cccs4)[nH]3)cc2)C1 (stereo not shown) [Compound F6-6, 4-((3,5-Dimethylpiperidin-1-yl)sulfonyl)-N-(5-(thiophen-2-yl)-4H-1,2,4-triazol-3-yl)benzamide] |  |  | activity was lost | 
9 | CCOC(=O)c1nnc(NC(=O)c2ccc(S(=O)(=O)N3CC(C)CC(C)C3)cc2)o1 (stereo not shown) [Compound F6-3, Ethyl 5-(4-((3,5-dimethylpiperidin-1-yl)sulfonyl)benzamido)-1,3,4-oxadiazole-2-carboxylate] |  |  | inactive | 
10 | CC1CC(C)CN(S(=O)(=O)c2ccc(-c3nnc(-c4cccs4)o3)cc2)C1 (stereo not shown) [Compound F6-4, 2-(4-((3,5-Dimethylpiperidin-1-yl)sulfonyl)phenyl)-5-(thiophen-2-yl)-1,3,4-oxadiazole] |  |  | not active | 
11 | CCCCOc1ccc(-c2nnc(NC(=O)c3ccc(S(=O)(=O)N4C[C@H](C)C[C@H](C)C4)cc3)o2)cc1 [HSGN-191, N-(5-(4-butoxyphenyl)-1,3,4-oxadiazol-2-yl)-4-(((3S,5R)-3,5-dimethylpiperidin-1-yl)sulfonyl)benzamide] | 16 µg/mL (≈ 31.2 µM) | 16 µg/mL (≈ 31.2 µM) |  | 

The next lines start with results.

Row | MIC [1] | MIC [2] | SMILES | inhibition of growth of S. aureus [3] | further results
12 | 8 µg/mL (≈ 16.8 µM) | 8 µg/mL (≈ 16.8 µM) | C[C@@H]1C[C@H](C)CN(S(=O)(=O)c2ccc(C(=O)Nc3nnc(-c4ccc(F)cc4F)o3)cc2)C1 [HSGN-182, N-(5-(2,4-difluorophenyl)-1,3,4-oxadiazol-2-yl)-4-(((3S,5R)-3,5-dimethylpiperidin-1-yl)sulfonyl)benzamide] |  | 
13 | 16 µg/mL (≈ 35.2 µM) | 8 µg/mL (≈ 17.6 µM) | Cc1ccc(-c2nnc(NC(=O)c3ccc(S(=O)(=O)N4C[C@H](C)C[C@H](C)C4)cc3)o2)cc1 [HSGN-181, 4-(((3S,5R)-3,5-dimethylpiperidin-1-yl)sulfonyl)-N-(5-(p-tolyl)-1,3,4-oxadiazol-2-yl)benzamide] |  | 
14 | > 64 µg/mL | > 64 µg/mL | C[C@@H]1C[C@H](C)CN(S(=O)(=O)c2ccc(C(=O)Nc3nnc(-c4cccc(C(=N)NO)c4)o3)cc2)C1 [HSGN-151, 4-(((3S,5R)-3,5-dimethylpiperidin-1-yl)sulfonyl)-N-(5-(3-(N-hydroxycarbamimidoyl)phenyl)-1,3,4-oxadiazol-2-yl)benzamide] |  | 
15 | 64 µg/mL (≈ 150 µM) | 32 µg/mL (≈ 75.2 µM) | O=C(Nc1nnc(-c2cccs2)o1)c1ccc(S(=O)(=O)Cc2ccccc2)cc1 [HSGN-104, 4-(benzylsulfonyl)-N-(5-(thiophen-2-yl)-1,3,4-oxadiazol-2-yl)benzamide] |  | MIC [4]: 64 µg/mL (≈ 150 µM); MIC [5]: > 128 µg/mL
16 | 16 µg/mL (≈ 33.6 µM) | 8 µg/mL (≈ 16.8 µM) | Cc1nc(C)c(-c2nnc(NC(=O)c3ccc(S(=O)(=O)N4C[C@H](C)C[C@H](C)C4)cc3)o2)s1 [HSGN-123, 4-(((3S,5R)-3,5-dimethylpiperidin-1-yl)sulfonyl)-N-(5-(2,4-dimethylthiazol-5-yl)-1,3,4-oxadiazol-2-yl)benzamide] |  | MIC [4]: 32 µg/mL (≈ 67.3 µM); MIC [5]: 64 µg/mL (≈ 135 µM)
17 | > 64 µg/mL | > 64 µg/mL | O=C1CN(S(=O)(=O)c2ccc(C(=O)Nc3nnc(-c4ccc(C(F)(F)F)cc4)o3)cc2)CCN1 [HSGN-162, 4-((3-oxopiperazin-1-yl)sulfonyl)-N-(5-(4-(trifluoromethyl)phenyl)-1,3,4-oxadiazol-2-yl)benzamide] |  | 
18 | 0.25 µg/mL (≈ 0.478 µM) | 0.25 µg/mL (≈ 0.478 µM) | Cc1cc(C(=O)Nc2nnc(-c3ccc(C(F)(F)F)cc3)o2)ccc1S(=O)(=O)N1C[C@H](C)C[C@H](C)C1 [HSGN-189, 4-(((3S,5R)-3,5-dimethylpiperidin-1-yl)sulfonyl)-3-methyl-N-(5-(4-(trifluoromethyl)phenyl)-1,3,4-oxadiazol-2-yl)benzamide] |  | 
19 | 8 µg/mL (≈ 15.7 µM) | 8 µg/mL (≈ 15.7 µM) | C[C@@H]1C[C@H](C)CN(S(=O)(=O)c2cccc(C(=O)Nc3nnc(-c4ccc(C(F)(F)F)cc4)o3)c2)C1 [HSGN-176, 3-(((3S,5R)-3,5-dimethylpiperidin-1-yl)sulfonyl)-N-(5-(4-(trifluoromethyl)phenyl)-1,3,4-oxadiazol-2-yl)benzamide] |  | 
20 |  | 16 µg/mL (≈ 41 µM) | CN(C)S(=O)(=O)c1ccc(C(=O)Nc2nnc(-c3ccc(F)cc3)o2)cc1 [Compound F3] | significantly inhibited the growth | MIC [6]: 32 µg/mL (≈ 82 µM); MIC [7]: 16 µg/mL (≈ 41 µM); MIC [8]: 32 µg/mL (≈ 82 µM); MIC [9]: 32 µg/mL (≈ 82 µM)
21 | 2 µg/mL (≈ 4.36 µM) | 0.5 µg/mL (≈ 1.09 µM) | C[C@@H]1C[C@H](C)CN(S(=O)(=O)c2ccc(C(=O)Nc3nnc(-c4cccc(F)c4)o3)cc2)C1 [HSGN-111, 4-(((3S,5R)-3,5-dimethylpiperidin-1-yl)sulfonyl)-N-(5-(3-fluorophenyl)-1,3,4-oxadiazol-2-yl)benzamide] |  | MIC [4]: 2 µg/mL (≈ 4.36 µM); MIC [5]: 2 µg/mL (≈ 4.36 µM)
22 | 2 µg/mL (≈ 3.83 µM) | 1 µg/mL (≈ 1.91 µM) | Cc1ccc(C(=O)Nc2nnc(-c3ccc(C(F)(F)F)cc3)o2)cc1S(=O)(=O)N1C[C@H](C)C[C@H](C)C1 [HSGN-177, 3-(((3S,5R)-3,5-dimethylpiperidin-1-yl)sulfonyl)-4-methyl-N-(5-(4-(trifluoromethyl)phenyl)-1,3,4-oxadiazol-2-yl)benzamide] |  | 
23 | > 64 µg/mL | > 64 µg/mL | C[C@@H]1C[C@H](C)CN(S(=O)(=O)c2ccc(C(=O)Nc3ccc4[nH]c(=O)oc4c3)cc2)C1 [HSGN-158, 4-(((3S,5R)-3,5-dimethylpiperidin-1-yl)sulfonyl)-N-(2-oxo-2,3-dihydrobenzo[d]oxazol-6-yl)benzamide] |  | 
24 | 2 µg/mL (≈ 3.93 µM) | 1 µg/mL (≈ 1.97 µM) | C[C@@H]1C[C@H](C)CN(S(=O)(=O)c2ccc(C(=O)Nc3nnc(-c4cccc(C(F)(F)F)c4)o3)cc2)C1 [HSGN-122, 4-(((3S,5R)-3,5-dimethylpiperidin-1-yl)sulfonyl)-N-(5-(3-(trifluoromethyl)phenyl)-1,3,4-oxadiazol-2-yl)benzamide] |  | MIC [4]: 4 µg/mL (≈ 7.87 µM); MIC [5]: 8 µg/mL (≈ 15.7 µM)
25 | 1 µg/mL (≈ 2.11 µM) | 0.5 µg/mL (≈ 1.05 µM) | C[C@@H]1C[C@H](C)CN(S(=O)(=O)c2ccc(C(=O)Nc3nnc(-c4cccc(Cl)c4)o3)cc2)C1 [HSGN-110, N-(5-(3-chlorophenyl)-1,3,4-oxadiazol-2-yl)-4-(((3S,5R)-3,5-dimethylpiperidin-1-yl)sulfonyl)benzamide] |  | MIC [4]: 1 µg/mL (≈ 2.11 µM); MIC [5]: 2 µg/mL (≈ 4.21 µM)
26 | 4 µg/mL (≈ 8.5 µM) | 2 µg/mL (≈ 4.25 µM) | COc1cccc(-c2nnc(NC(=O)c3ccc(S(=O)(=O)N4C[C@H](C)C[C@H](C)C4)cc3)o2)c1 [HSGN-112, 4-(((3S,5R)-3,5-dimethylpiperidin-1-yl)sulfonyl)-N-(5-(3-methoxyphenyl)-1,3,4-oxadiazol-2-yl)benzamide] |  | MIC [4]: 8 µg/mL (≈ 17 µM); MIC [5]: 4 µg/mL (≈ 8.5 µM)
27 | 4 µg/mL (≈ 9.08 µM) | 4 µg/mL (≈ 9.08 µM) | C[C@@H]1C[C@H](C)CN(S(=O)(=O)c2ccc(C(=O)Nc3nnc(-c4ccccc4)o3)cc2)C1 [HSGN-180, 4-(((3S,5R)-3,5-dimethylpiperidin-1-yl)sulfonyl)-N-(5-phenyl-1,3,4-oxadiazol-2-yl)benzamide] |  | 
